In patent US10385057B2, “Pyrazole compounds and methods of making and using same” (Lundbeck La Jolla Research Center, Inc., priority 2015, dated 2019):

What was measured:
[1] = biological target: T1, FAAH (Mus musculus, UniProt O08914); assay: In vitro competitive activity-based protein profiling, mouse FAAH; type: biochemical; conditions: for inhibition at 1 µM: read-out: FAAH % inh. 1 μM (mouse); for inhibition at 10 µM: read-out: FAAH % inh. at 10 μM (mouse)
T1 construct: mouse brain membrane fraction or cell lysates for mouse assays; from tissue
T1 sequence (O08914 1-579): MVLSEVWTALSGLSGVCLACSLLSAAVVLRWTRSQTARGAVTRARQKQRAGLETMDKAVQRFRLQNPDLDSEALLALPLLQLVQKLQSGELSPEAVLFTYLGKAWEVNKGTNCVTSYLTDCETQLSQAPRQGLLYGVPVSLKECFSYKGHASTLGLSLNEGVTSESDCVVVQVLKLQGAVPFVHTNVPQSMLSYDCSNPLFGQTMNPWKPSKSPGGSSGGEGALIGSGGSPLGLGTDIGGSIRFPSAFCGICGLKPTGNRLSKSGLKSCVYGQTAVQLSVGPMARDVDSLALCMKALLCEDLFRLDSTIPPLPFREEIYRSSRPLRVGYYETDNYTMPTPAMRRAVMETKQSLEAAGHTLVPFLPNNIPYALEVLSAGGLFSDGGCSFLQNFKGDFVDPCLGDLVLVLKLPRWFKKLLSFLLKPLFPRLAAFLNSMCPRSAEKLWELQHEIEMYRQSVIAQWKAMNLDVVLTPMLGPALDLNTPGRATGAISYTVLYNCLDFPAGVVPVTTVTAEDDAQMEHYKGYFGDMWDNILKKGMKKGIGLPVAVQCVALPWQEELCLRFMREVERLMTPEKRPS
Procedure: (§1) In Vitro Competitive Activity-Based Protein Profiling.
(§2) Proteomes (mouse brain membrane fraction or cell lysates for mouse assays; human prefrontal cortex or cell membrane fractions for human assays) (50 μL, 1.0 mg/mL total protein concentration) were preincubated with varying concentrations of inhibitors at 37° C. After 30 min, FP-Rh or HT-01 (1.0 μL, 50 μM in DMSO) was added and the mixture was incubated for another 30 min at 37° C. Reactions were quenched with SDS loading buffer (15 μL—4×) and run on SDS-PAGE. Following gel imaging, serine hydrolase activity was determined by measuring fluorescent intensity of gel bands corresponding to MAGL and FAAH using ImageJ 1.43u software.

[2] = biological target: T2, MAGL (Mus musculus, UniProt O35678); assay: In vitro competitive activity-based protein profiling, mouse MAGL; type: biochemical; conditions: for inhibition at 1 µM: read-out: MAGL % inh. 1 μM (mouse); for inhibition at 10 µM: read-out: MAGL % inh. at 10 μM (mouse)
T2 construct: mouse brain membrane fraction or cell lysates for mouse assays; from tissue
T2 sequence (O35678 1-303): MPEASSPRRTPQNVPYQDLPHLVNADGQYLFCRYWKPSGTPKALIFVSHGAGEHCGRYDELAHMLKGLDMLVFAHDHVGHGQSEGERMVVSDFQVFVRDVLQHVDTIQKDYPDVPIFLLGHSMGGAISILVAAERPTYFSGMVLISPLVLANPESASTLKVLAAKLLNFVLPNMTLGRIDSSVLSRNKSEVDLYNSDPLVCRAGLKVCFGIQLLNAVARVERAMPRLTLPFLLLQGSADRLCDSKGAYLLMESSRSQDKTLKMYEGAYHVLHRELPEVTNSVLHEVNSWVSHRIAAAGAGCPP
Procedure: as §1, §2

inhibition at 1 µM ([1]; 1 μM) [%]	inhibition at 1 µM [2] [%]	SMILES	other results
≥ 75	≥ 75	O=C(c1cnn(C(=O)N2CCC3(CCN(Cc4cc(Cl)ccc4Cl)C3)C2)c1)N1CCN(C2CC2)CC1 (centres unmarked) [Example 30, (4-cyclopropylpiperazin-1-yl)(1-(7-(2,5-dichlorobenzyl)-2,7-diazaspiro[4.4]nonane-2-carbonyl)-1H-pyrazol-4-yl)methanone]	
≥ 75	25 to 50	O=C(c1cnn(C(=O)N2CCC3(CCN(Cc4cccc(C(F)(F)F)c4)C3)C2)c1)N1CCCC1 (centres unmarked) [Example 31, pyrrolidin-1-yl(1-(7-(3-(trifluoromethyl)benzyl)-2,7-diazaspiro[4.4]nonane-2-carbonyl)-1H-pyrazol-4-yl)methanone]	
≥ 75	0 to 25	O=C(c1cnn(C(=O)N2CCC3(CCN(Cc4cccc(C(F)(F)F)c4)C3)C2)c1)N1CCOCC1 (centres unmarked) [Example 32, (4-(morpholine-4-carbonyl)-1H-pyrazol-1-yl)(7-(3-(trifluoromethyl)benzyl)-2,7-diazaspiro[4.4]nonan-2-yl)methanone]	inhibition at 10 µM [1]: 100%; inhibition at 10 µM [2]: 50%
50 to 75	≥ 75	O=C(c1cnn(C(=O)N2CCC3(CCN(Cc4cccc(C(F)(F)F)c4)C3)C2)c1)N1CCN(C2CC2)CC1 (centres unmarked) [Example 33, (4-cyclopropylpiperazin-1-yl)(1-(7-(3-(trifluoromethyl)benzyl)-2,7-diazaspiro[4.4]nonane-2-carbonyl)-1H-pyrazol-4-yl)methanone]	
≥ 75	≥ 75	O=C(c1cnn(C(=O)N2CCC3(CCN(Cc4cc(Cl)cc(C(F)(F)F)c4)C3)C2)c1)N1CCCC1 (centres unmarked) [Example 34, (1-(7-(3-chloro-5-(trifluoromethyl)benzyl)-2,7-diazaspiro[4.4]nonane-2-carbonyl)-1H-pyrazol-4-yl)(pyrrolidin-1-yl)methanone]	
25 to 50	≥ 75	O=C(c1cnn(C(=O)N2CCC3(CCN(Cc4cc(Cl)cc(C(F)(F)F)c4)C3)C2)c1)N1CCOCC1 (centres unmarked) [Example 35, (1-(7-(3-chloro-5-(trifluoromethyl)benzyl)-2,7-diazaspiro[4.4]nonane-2-carbonyl)-1H-pyrazol-4-yl)(morpholino)methanone]	
≥ 75	≥ 75	O=C(c1cnn(C(=O)N2CCC3(CCN(Cc4cc(Cl)cc(C(F)(F)F)c4)C3)C2)c1)N1CCN(C2CC2)CC1 (centres unmarked) [Example 36, (1-(7-(3-chloro-5-(trifluoromethyl)benzyl)-2,7-diazaspiro[4.4]nonane-2-carbonyl)-1H-pyrazol-4-yl)(4-cyclopropylpiperazin-1-yl)methanone]	
≥ 75	50 to 75	NC(=O)c1cnn(C(=O)N2CCC3(CCN(Cc4ccc(Cl)cc4)C3)C2)c1 (centres unmarked) [Example 37, 1-(7-(4-chlorobenzyl)-2,7-diazaspiro[4.4]nonane-2-carbonyl)-1H-pyrazole-4-carboxamide]	IC50 [1]: ≤ 100 nM; IC50 [2]: 1000 to 10000 nM
≥ 75	0 to 25	CNC(=O)c1cnn(C(=O)N2CCC3(CCN(Cc4ccc(Cl)cc4)C3)C2)c1 (centres unmarked) [Example 38, 1-(7-(4-chlorobenzyl)-2,7-diazaspiro[4.4]nonane-2-carbonyl)-N-methyl-1H-pyrazole-4-carboxamide]	IC50 [1]: 100 to 1000 nM; IC50 [2]: 1000 to 10000 nM
≥ 75	≥ 75	CNC(=O)c1cnn(C(=O)N2CCC3(CCN(Cc4cc(Cl)ccc4Cl)C3)C2)c1 (centres unmarked) [Example 40, 1-(7-(2,5-dichlorobenzyl)-2,7-diazaspiro[4.4]nonane-2-carbonyl)-N-methyl-1H-pyrazole-4-carboxamide]	
≥ 75	0 to 25	CNC(=O)c1cnn(C(=O)N2CCC3(CCN(Cc4cccc(C(F)(F)F)c4)C3)C2)c1 (centres unmarked) [Example 42, N-methyl-1-(7-(3-(trifluoromethyl)benzyl)-2,7-diazaspiro[4.4]nonane-2-carbonyl)-1H-pyrazole-4-carboxamide]	inhibition at 10 µM [1]: 100%; inhibition at 10 µM [2]: 100%
≥ 75	≥ 75	CNC(=O)c1cnn(C(=O)N2CCC3(CCN(Cc4cc(Cl)cc(C(F)(F)F)c4)C3)C2)c1 (centres unmarked) [Example 44, 1-(7-(3-chloro-5-(trifluoromethyl)benzyl)-2,7-diazaspiro[4.4]nonane-2-carbonyl)-N-methyl-1H-pyrazole-4-carboxamide]	
≥ 75	≥ 75	CNC(=O)c1cnn(C(=O)N2CCC3(CCN(Cc4ccc(N5CCOCC5)cc4C(F)(F)F)C3)C2)c1 (centres unmarked) [Example 49, N-methyl-1-(7-(4-morpholino-2-(trifluoromethyl)benzyl)-2,7-diazaspiro[4.4]nonane-2-carbonyl)-1H-pyrazole-4-carboxamide]	
≥ 75	25 to 50	O=C(c1cnn(C(=O)N2CCC3(CCN(Cc4ccc(N5CCOCC5)cc4C(F)(F)F)C3)C2)c1)N1CCOCC1 (centres unmarked) [Example 51, (4-(morpholine-4-carbonyl)-1H-pyrazol-1-yl)(7-(4-morpholino-2-(trifluoromethyl)benzyl)-2,7-diazaspiro[4.4]nonan-2-yl)methanone]	
≥ 75	≥ 75	O=C(c1cnn(C(=O)N2CCC3(CCN(Cc4ccc(N5CCOCC5)cc4C(F)(F)F)C3)C2)c1)N1CCN(C2CC2)CC1 (centres unmarked) [Example 52, (4-cyclopropylpiperazin-1-yl)(1-(7-(4-morpholino-2-(trifluoromethyl)benzyl)-2,7-diazaspiro[4.4]nonane-2-carbonyl)-1H-pyrazol-4-yl)methanone]	
≥ 75	25 to 50	CN(Cc1ccc(C(F)(F)F)cc1)[C@@H]1C[C@@H]2CN(C(=O)n3cc(C(=O)N4CCOCC4)cn3)C[C@@H]2C1 [Example 53, (cis-5-(methyl(4-(trifluoromethyl)benzyl)amino)hexahydrocyclopenta[c]pyrrol-2(1H)-yl)(4-(morpholine-4-carbonyl)-1H-pyrazol-1-yl)methanone]	
≥ 75		CNC(=O)c1cnn(C(=O)N2C[C@H]3C[C@@H](N(C)Cc4ccccc4Cl)C[C@H]3C2)c1 [Example 56, 1-(trans-5-((2-chlorobenzyl)(methyl)amino)octahydrocyclopenta[c]pyrrole-2-carbonyl)-N-methyl-1H-pyrazole-4-carboxamide]	MAGL % inh. 1 μM (mouse) [2]: C (% inhibition greater than or equal to 25% and less than 50%)
		CN(Cc1ccccc1Cl)[C@@H]1C[C@@H]2CN(C(=O)n3cc(C(=O)N4CCCC4)cn3)C[C@@H]2C1 [Example 57, (trans-5-((2-chlorobenzyl)(methyl)amino)hexahydrocyclopenta[c]pyrrol-2(1H)-yl)(4-(pyrrolidine-1-carbonyl)-1H-pyrazol-1-yl)methanone]	FAAH % inh. 1 μM (mouse) ([1]; 1 μM): A (% inhibition greater than or equal to 75%); MAGL % inh. 1 μM (mouse) [2]: B (% inhibition greater than or equal to 50% and less than 75%)
≥ 75	≥ 75	CN(Cc1ccccc1Cl)[C@@H]1C[C@@H]2CN(C(=O)n3cc(Cl)cn3)C[C@@H]2C1 [Example 58, (4-chloro-1H-pyrazol-1-yl)(cis-5-((2-chlorobenzyl)(methyl)amino)hexahydrocyclopenta[c]pyrrol-2(1H)-yl)methanone]	IC50 [1]: ≤ 100 nM; IC50 [2]: 100 to 1000 nM
≥ 75	≥ 75	CC(=O)N(Cc1cccc(Cl)c1)[C@@H]1C[C@@H]2CN(C(=O)n3cc(Cl)cn3)C[C@@H]2C1 [Example 60, N-(cis-2-(4-chloro-1H-pyrazole-1-carbonyl)octahydrocyclopenta[c]pyrrol-5-yl)-N-(3-chlorobenzyl)acetamide]	IC50 [1]: ≤ 100 nM; IC50 [2]: ≤ 100 nM
≥ 75	≥ 75	O=C(N1C[C@H]2C[C@@H](NCc3ccccc3Cl)C[C@H]2C1)n1cc(Cl)cn1 [Example 61, (4-chloro-1H-pyrazol-1-yl)(cis-5-((2-chlorobenzyl)amino)hexahydrocyclopenta[c]pyrrol-2(1H)-yl)methanone]	IC50 [1]: 100 to 1000 nM; IC50 [2]: 100 to 1000 nM
